According to paper PMC4096046 (Bioorganic & medicinal chemistry letters, 2014):
In brackets after ≈: the same amount, converted by molar mass.

Experiments:
H37Rv Mtb = test: MIC against replicating H37Rv Mtb in GAS and 7H12 media; format: cell-based, Mycobacterium tuberculosis; conditions: for MIC: Mycobacterium tuberculosis, H37RV, read-out: MIC mean +/- against replicating Mtb in medium: GAS (μg/mL), GAS medium, H37Rv, recalculated from μM
Mycobacterium avium = test: MIC against non-tubercular mycobacteria: M. avium; format: cell-based
Mycobacterium bovis BCG = test: MIC against non-tubercular mycobacteria: M. bovis BCG; format: cell-based; conditions: Mycobacterium tuberculosis variant bovis BCG
Mycobacterium kansasii = test: MIC against non-tubercular mycobacteria: M. kansasii; format: cell-based

SMILES | MIC (H37Rv Mtb) | other results
Cc1ccc2c(C(=O)NCc3ccccc3)n[nH]c2c1 [Compound 9, N-benzyl-6-methyl-1H-indazole-3-carboxamide] | 10.8 ± 0.9 µg/mL (≈ 40.7 µM) | 
Cc1ccn2c(C)c(C(=O)NCc3ccccc3)nc2c1 [Compound 12, N-benzyl-3,7-dimethylimidazo[1,2-a]pyridine-2-carboxamide] | 19.6 ± 2.5 µg/mL (≈ 70.2 µM) | 
Cc1ccn2c(C(=O)NCc3ccccc3)nnc2c1 [Compound 10, N-benzyl-7-methyl-[1,2,4]triazolo[4,3-a]pyridine-3-carboxamide] | 27 ± 1.6 µg/mL (≈ 101 µM) | negative effect on potency relative to compound 2 (H37Rv Mtb; GAS medium, MIC of 0.1 and 101 μM): 1000 x
Cc1ccc2nc(C)c(C(=O)NCc3ccccc3)n2c1 [Compound 2] | 0.031 ± 0.002 µg/mL (≈ 0.111 µM) | MIC (Mycobacterium avium): 16 µM (≈ 4.47 µg/mL); MIC (Mycobacterium bovis BCG): 1 µM (≈ 0.279 µg/mL)
Cc1ccc2c(C(=O)NCc3ccccc3)c(C)[nH]c2c1 [Compound 8, N-Benzyl-2,6-dimethyl-1H-indole-3-carboxamide] | 12.2 ± 0.3 µg/mL (≈ 43.8 µM) | 
Cc1ccc2nc(C)c(C(=O)NCc3ccccc3)n2n1 [Compound 7, N-benzyl-2,6-dimethylimidazo[1,2-b]pyridazine-3-carboxamide] | 17.9 ± 0.5 µg/mL (≈ 63.9 µM) | 
Cc1cc(C)n2nc(C(=O)NCc3ccccc3)nc2n1 [Compound 11, N-benzyl-5,7-dimethyl-[1,2,4]triazolo[1,5-a]pyrimidine-2-carboxamide] | 35.4 ± 0.8 µg/mL (≈ 126 µM) | 
Cc1ccn2c(C(=O)NCc3ccccc3)c(C)nc2c1 [Compound 1, N-benzyl-2,7-dimethyl-imidazo[1,2-a]pyridine-3-carboxamide] |  | times more potent than 12 (H37Rv Mtb; MIC's of 0.2 and 70 μM): 350 times
Cc1cnc2nc(C)c(C(=O)NCc3ccccc3)n2c1 [Compound 6, N-benzyl-2,6-dimethylimidazo[1,2-a]pyrimidine-3-carboxamide] | 0.36 ± 0.06 µg/mL (≈ 1.28 µM) | MIC (Mycobacterium kansasii): 19 µM (≈ 5.33 µg/mL); MIC (Mycobacterium bovis BCG): 8 µM (≈ 2.24 µg/mL)
